Consider two compounds from patent US7462630B2, “Diarylalkene derivatives and novel diarylalkane derivatives” (Ajinomoto Co., Inc., priority 2001, dated 2008).

Experiment [1] relates to Sprague-Dawley (SD) rats, formalin-induced flinching. The experiment can be described thus: Analgesic effects in the formalin test. In kind it is in vivo, rat. How it is done: Four test groups each composed of 7 male Sprague-Dawley: SD rats (9 weeks old) were used for the experiment. In the control group, 0.5% tragacanth solution was given to the rats. In other test groups, 0.3, 3 or 30 mg/kg of the compound obtained in Example 11 (compound A) was given to them. Compound A was used in the form of a suspension thereof in 0.5% tragacanth solution.
Five ml/kg of 0.5% tragacanth solution or compound A was orally administered to the rats. Three hours after, the rats were tranquilized with halothane, and 2.5% formalin solution (100 μl) was injected subcutaneously to dorsal surface of the left hindpaw. Immediately thereafter, the rats were awaken from the anesthesia. […] The number of times of retracting action, i.e., flinching action of the hindpaw in which formalin had been injected, was counted for 1 minute at an interval of one minute until 5 minutes after the formalin injection, and for 1 minute at an interval of 5 minutes from 10 to 60 minutes after the injection. As reported in a literature (J. Pharmacol. Exp. Ther. 263: 136-146, 1992), the pain reaction by the stimulation with formalin appeared in two phases. The total number of times of the flinching action observed 10 to 60 minutes after the formalin injection (the second phase) was taken as the index of the pain action.
The experiment was conducted in the same manner as that in above Test Example 3 except for the followings.
Five test groups each composed of 6 male Sprague-Dawley (SD) rats (9 weeks old) were used for the experiment. In the control group, polyethylene glycol 400 was given to the rats. In the other test groups, 3, 30, 100 or 300 mg/kg of the compound obtained in Example 71 (compound B) was given to them. Compound B was used in the form of a solution thereof in polyethylene glycol 400 (PEG).
Three ml/kg of PEG or compound B was orally administered to the rats.

Experiment [2] deals with Sprague-Dawley (SD) rats, partial sciatic nerve ligation (Seltzer model). The experiment can be described thus: Analgesic effects on a neuropathic pain model (partial sciatic nerve ligation model, mechanical allodynia, von Frey filaments). To be noted: one hour after administration. In kind it is in vivo, rat. How it is done: The effect of compound A in improving mechanical allodynia was evaluated using the partial sciatic nerve ligation model (Seltzer model, Pain, 43: 205-218, 1990) which belongs to the neuropathic pain models. For detecting the mechanical allodynia, the sole of the right paw of each rat was stimulated with von Frey filaments, and the threshold of the reaction for the mechanical stimulation (50% threshold) was determined according to a method of Chaplan et al. (J. Neurosci. Methods, 53: 55-63, 1994). In this step, the stimulation of the sole of the paw with each filament was repeated 8 times at a rate of about twice a second.
About a half thickness of the right sciatic nerve of each 8 week-old male Sprague-Dawley (SD) rat, whose reaction threshold was determined before the nerve injury, was ligated with a surgical suture to partially injure the nerve according to a method of Seltzer et al. (Pain, 43: 205-218, 1990). Six days after the nerve injury, the reaction threshold of the right hindpaw was determined and compared with that determined before the nerve injury. Individuals having a threshold far lower than that determined before the nerve injury [i.e. rats showing mechanical allodynia] were selected for evaluating allodynia improving effect. Seven and 9 days after the nerve injury, the reaction threshold of the rats selected for the purpose of the evaluation was determined before compound administration. […] One hour after the administration, the reaction threshold of each rat was determined.
The effect of compound B in improving mechanical allodynia was evaluated using the partial sciatic nerve ligation model (Seltzer model, Pain, 43: 205-218, 1990) which belongs to the neuropathic pain models. […] Six days after the nerve injury, the reaction threshold of the right hindpaw was determined and was compared with that determined before the nerve injury. Individuals having a threshold far lower than that determined before the nerve injury [i.e. rats showing mechanical allodynia] were selected for evaluating allodynia improving effect. […]

As to `CC(C)(C)C(=O)N[C@H](CO)CCC(=O)N1CCC(=C2c3ccccc3C=Cc3ccccc32)CC1` [Example 71, (S)-N-[4-[4-(5H-dibenzo[a,d][7]annulen-5-ylidene)-1-piperidinyl]-1-(hydroxylmethyl)-4-oxobutyl]-2.2-dimethylpropanamide], the “inhibiting ratio of flinches (second phase, 10 to 60 min) based on control group” value in experiment [1] (3 mg/kg oral, solution in polyethylene glycol 400) is recorded as 11%; in experiment [1] (30 mg/kg oral, solution in polyethylene glycol 400), 33%; in experiment [1] (100 mg/kg oral, solution in polyethylene glycol 400), 53%; in experiment [1] (300 mg/kg oral, solution in polyethylene glycol 400) it was 59%. Also, the results for the “reaction threshold for mechanical stimulation (50% threshold) after the administration” value in experiment [2] (3 mg/kg oral in PEG) and in experiment [2] (100 mg/kg oral in PEG) were “hardly changed” and “clearly increased”, respectively.
Consider `CC(C)(C)C(=O)NCCC(=O)N1CCC(=C2c3ccccc3C=Cc3ccccc32)CC1` [Example 11, N-{3-[4-(5H-dibenzo[a,d][7]annulen-5-ylidene)-1-piperidinyl]-3-oxopropyl}-2,2-dimethylpropanamide], for which the “inhibiting ratio of flinches (second phase, 10 to 60 min) based on control group” value was 10% in experiment [1] (0.3 mg/kg oral, suspension in 0.5% tragacanth, 3 hours before formalin); 42% in experiment [1] (3 mg/kg oral, suspension in 0.5% tragacanth, 3 hours before formalin); 37% in experiment [1] (30 mg/kg oral, suspension in 0.5% tragacanth, 3 hours before formalin). In addition, the “reaction threshold for mechanical stimulation (50% threshold) after the administration” value in experiment [2] (3 mg/kg oral in 0.5% tragacanth) was “increased”.
